What all share (assay type): physicochemical
Series [1] in a line: Assessment of coloration of deodorant or antiperspirant formulations containing perfuming ingredients with or without Haloscent D. Also on record: key: CO: color; COYE: yellow color; SCOYE: slight yellow color; VCOYE: very yellow color; NC: no color; DECO: discoloration; CL: cloud; VCL: very cloud; WH: white; VCOBR: very brown color; COPI: ping color. Conditions: perfuming ingredient 0.5 wt %, after 15 days; for Coloration of deodorant roll-on: DEO ROLL-ON + Haloscent D 0.5 wt %; for Coloration of deodorant spray: DEO SPRAY + Haloscent D 0.5 wt %. As for the experimental part: (§1) Preparation of an Antiperspirant Spray Formulation: Using a high speed stirrer, Silica (Table 1) and Quaternium-18-Hectorite (Table 1) were added to the Isopropyl miristate (Table 1) and Cyclomethicone mixture (Table 1). Once completely swollen, Aluminium Chlorohydrate (Table 1) was added portion wise under stirring until the mixture was homogeneous and without lumps. The aerosol cans were filled with 25% Suspension of the suspension and 75% of Propane/Butane (2.5 bar).
(§2) Preparation of Deodorant Spray Formulation: All the ingredients according to the sequence of the Table 2 were mixed and dissolved. Then the aerosol cans were filled, crimp and add the propellant (Aerosol filling: 40% active solution 60% Propane/Butane 2.5 bar).
(§3) Part A was prepared by sprinkling little by little the Hydroxyethylcellulose (Table 3) in the water (Table 3) whilst rapidly stirring with the turbine. Stirring was continued until the Hydroxyethylcellulose had entirely swollen and giving a limpid gel. Then, Part B (Table 3) was poured little by little in Part A whilst continuing stirring until the whole was homogeneous. Part C was added (Table 3).
(§4) Preparation of a Deodorant Stick Formulation: All the components of Part A were weighted (Table 4) and heated up to 70-75° C. Ceteareth-25 (Table 4) was added once the other Part A ingredients were mixed and heated. Once the Ceteareth-25 was dissolved, the Stearic Acid was added. Part B was prepared by dissolving the Triclosan (Table 4) in 1,2 Propylene Glycol (Table 4). Water which has evaporated was added. Slowly under mixing, Part B was poured into part A. To stock, a plastic bag into the bucket was put in to be sealed after cooling. Moulds was filled at about 70° C.
(§5) Preparation of an Antiperspirant Stick Formulation: All the components of Part A were weighted (Table 5), heated up to 70-75° C. and mixed well. Ingredient of Part B was dispersed in Part A. The mixture was mixed and putted into a tick at 65° C.
(§6) Assessment of Coloration in the Perfuming Ingredients: To set of deodorant or antiperspirant formulations of point a) to e) has been prepared. A perfuming ingredient (0.5 wt %—Table 6, 7 and 8) was added to the first set a and a perfuming ingredient (0.5 wt %—Table 6, 7 and 8) and Haloscent® D (0.5 wt %) were added to the second set. All these formulations were placed at 3° C. and 45° C. for several weeks. All formulations were evaluated in comparison with unperfumed deodorant or antiperspirant formulation. The coloration of each formulation was assessed by a minimum of 2 panelists.

Assay in series [2]: as above
Also on record: key: CO: color; COYE: yelow color; VSCOYE: very slight yellow color; SCOYE: slight yellow color; VCOYE: very yellow color; NC: no color; DECO: decoloration; CL: cloud; VCL: very cloud; WH: white; VCOBR: very brown color; COPI: ping color. The note with it: perfuming ingredient 0.5 wt %, after 15 days. How it is done: as §1, §2, §3, §4, §5, §6

Assay in series [3]: as above
Further details: key to Coloration of antiperspirant stick: CO: color; COYE: yelow color; VSCOYE: very slight yellow color; SCOYE: slight yellow color; VCOYE: very yellow color; NC: no color; DECO: decoloration; CL: cloud; VCL: very cloud; WH: white; VCOBR: very brown color; COPI: ping color. The note with it: perfuming ingredient 0.5 wt %; for Coloration of antiperspirant stick: after 7 days. How it is done:
as §1, §2, §3, §4, §5, §6

Where [4] appears, read: DEO ROLL-ON + Haloscent D 0.5 wt %, 3° C.
[5] abbreviates: DEO STICK + Haloscent D 0.5 wt %, 3° C.
Setting [6] is: DEO STICK + Haloscent D 0.5 wt %, 45° C.
Setting [7] is: AP Stick + Haloscent D 0.5 wt %, 3° C.
The mark [8] stands for this setting: AP Stick + Haloscent D 0.5 wt %, 45° C.
Where [9] appears, read: DEO ROLL-ON + Haloscent D 0.5 wt %, 45° C.
The mark [10] stands for this setting: AP SPRAY + Haloscent D 0.5 wt %, 3° C.
Where [11] appears, read: AP SPRAY + Haloscent D 0.5 wt %, 45° C.

Turning to “(+−)-(3E)-3-methyl-4-(2,6,6-trimethyl-2-cyclohexen-1-yl)-3-buten-2-one (A) + (+−)-(1E)-1-(2,6,6-trimethyl-2-cyclohexen-1-yl)-1-penten-3-one (B) [ISORALDEINE 70P]”, the “Coloration of deodorant roll-on” value in series [1] (45° C.) is “COYE”; in series [2] (setting [4]), “WH”; in series [2] (DEO ROLL-ON, 3° C.), “VCL”; in series [2] (DEO ROLL-ON, 45° C.), “NC”. For the same compound, the “Coloration of deodorant stick” value in series [2] (setting [5]) is recorded as “NC”; in series [2] (setting [6]) it was “VCOYE”; in series [2] (DEO STICK, 3° C.), “NC”; in series [2] (DEO STICK, 45° C.), “VCOYE”.
With `c1ccc2[nH]ccc2c1` [2,3-BENZOPYRROLE], the “Coloration of deodorant roll-on” value was “NC” in series [2] (setting [4]); “NC” in series [2] (DEO ROLL-ON, 3° C.); “NC” in series [2] (DEO ROLL-ON, 45° C.); “VSCOYE” in series [3] (DEO ROLL-ON + Haloscent D 0.5 wt %, 45° C., after 15 days). Also, the “Coloration of deodorant stick” value in series [2] (setting [5]) was “NC”; in series [2] (setting [6]) it was “NC”; in series [2] (DEO STICK, 3° C.), “NC”; in series [2] (DEO STICK, 45° C.), “SCOYE”. For the same compound, the “Coloration of antiperspirant stick” value in series [3] (setting [7]) is on record as “COPI”; in series [3] (setting [8]), “VSCOYE”; in series [3] (AP Stick, 3° C.) it was “DECO”; in series [3] (AP Stick, 45° C.), “VSCOYE”.
For `CCC(=O)OCC(=O)O[C@@H](C)[C@@H]1CCCC(C)(C)C1` [ROMANDOLIDE, 2-{(1S)-1-[(1R)-3,3-dimethylcyclohexyl]ethoxy}-2-oxoethyl propionate], the “Coloration of deodorant roll-on” value in series [1] (45° C.) is “COYE”; in series [2] (setting [4]), “VCL”; in series [2] (DEO ROLL-ON, 3° C.), “VCL”; in series [2] (DEO ROLL-ON, 45° C.) it was “NC”. The “Coloration of deodorant stick” value is “NC” in series [2] (setting [5]); “NC” in series [2] (setting [6]); “NC” in series [2] (DEO STICK, 3° C.); “NC” in series [2] (DEO STICK, 45° C.).
With `C=C(CC)CCCC(C)(C)O` [2-METHYL-6-METHYLIDENEOCTAN-2-OL], the “Coloration of deodorant roll-on” value in series [2] (setting [4]) was “NC”; in series [2] (setting [9]), “NC”; in series [2] (DEO ROLL-ON, 3° C.) it was “NC”; in series [2] (DEO ROLL-ON, 45° C.) it was “NC”. Further, the “Coloration of deodorant stick” value in series [2] (setting [5]) is “SCOYE”; in series [2] (setting [6]), “NC”; in series [2] (DEO STICK, 3° C.), “NC”; in series [2] (DEO STICK, 45° C.) it was “NC”.
For the compound `O=C1CC/C=C\CCCCCCCCCC1` [EXALTENONE, (Z)-4-CYCLOPENTADECEN-1-ONE], the “Coloration of deodorant spray” value in series [1] (3° C.) is given as “COYE”; in series [1] (45° C.), “COYE”; in series [2] (DEO SPRAY, 3° C.), “NC”; in series [2] (DEO SPRAY, 45° C.), “NC”. The “Coloration of antiperspirant spray” value is “NC” in series [2] (setting [10]); “NC” in series [2] (setting [11]); “NC” in series [2] (AP SPRAY, 3° C.); “NC” in series [2] (AP SPRAY, 45° C.). For the same compound, the “Coloration of deodorant roll-on” value in series [2] (setting [4]) is recorded as “WH”; in series [2] (setting [9]), “CL”; in series [2] (DEO ROLL-ON, 3° C.), “VCL”; in series [2] (DEO ROLL-ON, 45° C.), “VCL”. In addition, the “Coloration of deodorant stick” value in series [2] (setting [5]) is on record as “NC”; in series [2] (setting [6]) it was “NC”; in series [2] (DEO STICK, 3° C.), “NC”; in series [2] (DEO STICK, 45° C.), “NC”.
Take `CC(C)=CCCC(C)CCO` (racemic) [(+−)-3,7-DIMETHYL-6-OCTEN-1-OL]: the “Coloration of antiperspirant spray” value in series [2] (setting [10]) is “SCOYE”; in series [2] (setting [11]) it was “SCOYE”; in series [2] (AP SPRAY, 3° C.), “NC”; in series [2] (AP SPRAY, 45° C.), “NC”. Moreover, the “Coloration of deodorant roll-on” value in series [2] (setting [4]) was “NC”; in series [2] (setting [9]), “NC”; in series [2] (DEO ROLL-ON, 3° C.) it was “NC”; in series [2] (DEO ROLL-ON, 45° C.), “NC”. Besides, the “Coloration of deodorant spray” value is listed as “NC” in series [2] (DEO SPRAY + Haloscent D 0.5 wt %, 3° C.); “NC” in series [2] (DEO SPRAY + Haloscent D 0.5 wt %, 45° C.); “NC” in series [2] (DEO SPRAY, 3° C.); “NC” in series [2] (DEO SPRAY, 45° C.). The “Coloration of deodorant stick” value in series [2] (setting [5]) was “SCOYE”; in series [2] (setting [6]), “NC”; in series [2] (DEO STICK, 3° C.), “NC”; in series [2] (DEO STICK, 45° C.), “NC”. Besides, the “Coloration of antiperspirant stick” value in series [3] (setting [7]) is on record as “VSCOYE”; in series [3] (setting [8]) it was “VSCOYE”; in series [3] (AP Stick, 3° C.) it was “DECO”; in series [3] (AP Stick, 45° C.) it was “DECO”.
With `CCCCCOC(=O)c1ccccc1O` [AMYLE SALICYLATE, PENTYL 2-HYDROXYBENZOATE], the “Coloration of deodorant roll-on” value in series [2] (setting [4]) is listed as “WH”; in series [2] (setting [9]), “VCL”; in series [2] (DEO ROLL-ON, 3° C.) it was “VCL”; in series [2] (DEO ROLL-ON, 45° C.), “NC”. Further, the “Coloration of deodorant stick” value is “NC” in series [2] (setting [5]); “NC” in series [2] (setting [6]); “NC” in series [2] (DEO STICK, 3° C.); “NC” in series [2] (DEO STICK, 45° C.). The “Coloration of antiperspirant stick” value is listed as “VSCOPI” in series [3] (setting [7]); “VSCOPI” in series [3] (setting [8]); “VSCOPI” in series [3] (AP Stick, 3° C.); “NC” in series [3] (AP Stick, 45° C.).
In the case of “1-(3,3-dimethyl-1-cyclohexen-1-yl)-4-penten-1-one (A) + 1-(5,5-dimethyl-1-cyclohexen-1-yl)-4-penten-1-one (B) [DYNASCONE]”, the “Coloration of deodorant roll-on” value was “WH” in series [2] (setting [4]); “SCOYE” in series [2] (setting [9]); “VCL” in series [2] (DEO ROLL-ON, 3° C.); “NC” in series [2] (DEO ROLL-ON, 45° C.). Besides, the “Coloration of deodorant stick” value in series [2] (setting [5]) is given as “SCOYE”; in series [2] (setting [6]), “VCOYE”; in series [2] (DEO STICK, 3° C.), “NC”; in series [2] (DEO STICK, 45° C.) it was “VCOYE”.

The record behind these values is patent publication US12016943B2, “Antiperspirant or deodorant composition” (Firmenich SA, priority 2016, dated 2024).
